Here are results for five molecules from patent publication US20050049174A1, “Method and substance for facilitating weaning, reducing morbidity and reducing mortality in cardiac surgeries involving extra-corporal circulation” (priority 2003, published 2005).

“Also recorded” adds a separate entry of the source. Where two headings read alike, the source gives them in different places. Marks after values point to notes of the source that are not given here.

The subject of data set [1] is porcine subjects undergoing cardiopulmonary bypass.
The subject of data set [2] is coronary care unit patients hospitalized for an exacerbation of chronic heart failure. The conditions noted are these: cited from earlier work.
In another data set the test system is cardiac surgery patients. The conditions noted are these: cited from earlier work; for Result: hemodynamic effects, amrinone vs milrinone: n 44, elective cardiac surgery, bolus amrinone 0.75 mg/kg or milrinone 25 μg/kg.
Data set [3] has as its system rings of porcine pulmonary artery with endothelium. In words: vascular reactivity studies in organ chambers after cardiopulmonary bypass. The class given is in vivo, Landrace swine. The conditions noted are these: for KCL: amplitude of the contraction to KCl (60 mmol/L) / Dose PE: concentration of PE used to obtain 50% of contraction to KCl: mean +/- SEM. The procedure:
After 60 minutes of reperfusion, swine were sacrificed and pulmonary arteries harvested. After contraction to phenylephrine, pulmonary arteries endothelium-dependent relaxations to bradykinin (Gq coupled) and acetylcholine (Gi coupled) were studied in standard organ chamber experiments.
Less than 10 minutes after “en bloc” excision, the heart was removed and the primary pulmonary artery was dissected. Branches of second degree pulmonary arteries were isolated and dissected free of connective and adventitial tissue and divided into rings (4 mm wide; 16 rings per animal). All rings were placed in organ chambers (Emka technologies Inc, Paris, France) filled with 20 mL modified Krebs-bicarbonate solution continuously heated at 37° C. and oxygenated with a carbogen mixture (95% O2 and 5% CO2). The rings were suspended between 2 metal stirrups with the upper 1 connected to an isometric force transducer connected to a signal amplifier and then allowed to stabilize for 30 minutes. Data were collected with a biological signal data acquisition software (IOX 1.700; Emka technologies Inc, Paris, France). Each arterial ring was stretched to the optimal point of its active length-tension curve (3.5 g) as determined by measuring the contraction to potassium chloride (KCl) 60 mmol/L at different levels of stretch (data not shown). The maximal contraction of rings was then obtained with addition of potassium chloride (KCl 60 mmol/L). After obtention of a plateau, all baths were washed twice with modified Krebs bicarbonate solution and indomethacin ([…]; to exclude production of endogenous prostanoids) was added in each bath. After 45 minutes of stabilisation, phenylephrine (range 2 {acute over} 10-7 mol/L to 3 {acute over} 10-6 mol/L) was added to obtain a contraction averaging 50% of the maximal contraction to KCl.
The NO-mediated relaxation pathway was studied by constructing concentration-response curves to acetylcholine (ACh, 10-9 to 10-5 mol/L; an agonist of M2 receptors coupled to Gi-proteins) and to bradykinin (BK, 10-12 to 10—6 mol/L; an agonist of B2 receptors coupled to Gq-proteins).
At the end of the experiment, endothelium-independent relaxations were studied with the use of 10-5 mol/L sodium nitroprusside (SNP), a nitric oxide donor
All values are expressed as the mean±standard error of the mean (SEM). Contractions to phenylephrine are expressed as a percentage of the maximal contraction to KCl (60 mmol/L). Relaxations are expressed as the percentage of the maximal contraction to phenylephrine for each ring. Two-way repeated analysis of variance (ANOVA) were performed to compare each point of the concentration-response curves between control rings and CPB rings. Student's t test for paired/unpaired observations was used for the comparison of the pulmonary artery pressures and the intravascular cAMP content. Statistical analysis was performed with the computer software S.A.S (Instr Inc. Cary, N.C., USA). A P-value less than 0.05 was considered statistically significant.

The subject of data set [4] is patients with pulmonary hypertension. The conditions noted are these: inhaled milrinone; cited from earlier work.
Data set [5] deals with person in cardiogenic shock. In words: inhaled milrinone in a person in cardiogenic shock (echocardiographic and hemodynamic monitoring). The data set is classed as in vivo, human. The conditions noted are these: 5 mg milrinone through inhalation. From the text: Finally, the cardiac index increased from 1.8 to 2.8 L.min/m^2.
The test system of data set [6] is patient, mitral valve and tricuspid valve repair. In words: inhaled prostacyclin prior to extra-corporal circulation in a patient. The data set is classed as in vivo, human. From the text:
This is to be contrasted with changes observed in Doppler hepatic venous flow after inhaled prostacyclin in a patient scheduled to undergo mitral valve and tricuspid valve repair. […] This was associated with a reduction in mean pulmonary artery pressure from 36 to 29 mmHg, pulmonary vascular resistance index from 589 to 267 dynes.s/cm^5/m^2 and an increase in cardiac index from 1.9 to 2.4 L/min/m^2. Heart rate and mean arterial pressure decreased respectively from 63 to 52 beats/min and from 76 to 64 mmHg.

The conditions of data set [7]: intravenous; animal studies; cited from earlier work.
Data set [8] relates to person operated under cardiopulmonary bypass. The data set can be described thus: inhaled prostacyclin at weaning from bypass in a person. The conditions noted are these: weaned with inhaled prostacyclin (75 μg). The data set is classed as in vivo, human. The protocol: In another case, a person was operated for a third time under cardiopulmonary bypass. […] Pre-operatively, they had abnormal right ventricular diastolic function with a lower systolic or S wave on the hepatic venous Doppler signal. After bypass (duration 157 min), they were weaned with inhaled prostacyclin (75 μg) and they left the operating room with noradrenaline at 2.5 μg/min and nitroglycerine at 0.4 μg/kg/min.

Data set [9] concerns heart transplant candidate. The conditions noted are these: inhaled prostacyclin group; cited from earlier work.
Setting [10] is: n 120, low CO after cardiac surgery.

Turning to `Cc1[nH]c(=O)c(C#N)cc1-c1ccncc1` [milrinone], the “systemic vascular resistance after bolus” value in data set [1] (in vivo) is reported as “did not fall”; in data set [1] (in vivo, iv), “important decrease”. Besides, the heart rate result is on record as “increased” in [1] (in vivo, iv); “significantly lower” in [1] (inhaled milrinone vs CPB, at 15, 45 and 75 minutes per CPB and 30 and 60 minutes post CPB, p<0.05, FIG. 6). Besides, the “mean arterial pressure following administration of the bolus” value in data set [1] (inhaled milrinone, bolus of 60-90 mg/kg via nebulizer during 15 minutes preceding CPB, p<0.05, FIG. 2) is “significant decrease”. The “median number of days hospitalized for cardiovascular causes within 60 days” value in [2] (intravenous milrinone vs placebo) is on record as “no difference”. Besides, the in-hospital mortality in data set [2] (intravenous milrinone, vs 2.3% placebo, P=0.19) is given as 3.8%. Besides, the 60-day mortality in data set [2] (intravenous milrinone, vs 8.9% placebo, P=0.41) is given as 10.3%. The “Result: wean from bypass” value in the data set with cardiac surgery patients (n 32, LVEF ≦ 35%, PCWP ≧ 20 mmHg pre-bypass, bolus 50 ug/kg, perfusion 0.5 ug/kg/min, vs 5/15 placebo) was “All patients with milrinone”. For the same molecule, the “Result: hemodynamic effects, amrinone vs milrinone” value in the data set on cardiac surgery patients is given as “produced similar”. Moreover, the “Result: overall comparison milrinone and dobutamine” value in the data set with cardiac surgery patients (setting [10]) is on record as “comparable”. Further, the “Result: decreases in mean pulmonary capillary wedge pressure” value in the data set with cardiac surgery patients (n 120, low CO after cardiac surgery, milrinone 50 μg/kg and perfusion 0.5 μg/kg/min vs dobutamine) was “Group M had greater”. Also, the results for the “KCL: amplitude of the contraction to KCl (60 mmol/L)” value in data set [3] (Mil INH group) and in data set [3] (Mil IV group) were 4.8 +/− 0.28 and 4.0 +/− 0.3, respectively. For the same molecule, the “Dose PE: concentration of PE used to obtain 50% of contraction to KCl” value in data set [3] (Mil INH group, p<0.01 vs intravenous milrinone, p<0.05 vs control) is “greater”; in data set [3] (Mil INH group, p<0.01 vs intravenous milrinone, p<0.05 vs control, listed as Mil INH), 8.3 +/− 0.93*,**; in data set [3] (Mil IV group), 4.1 +/− 0.3. In [3] (inhaled milrinone compared to all other groups, P<0.05, FIG. 10), the “endothelium-dependent relaxation to BK” value is reported as “increased relaxation; also recorded: preventive effect”. Besides, the “CPB-induced decrease of endothelium-dependent relaxation to ACh” value in data set [3] (inhaled milrinone prior to CPB, FIG. 9) is “completely reversed; also recorded: preventive effect”. The “endothelium-dependent relaxation to BK: preventive effect on endothelial function” value in [3] (intravenous milrinone, FIG. 10) is reported as “not seen”. Also, the pulmonary vascular resistance entry in data set [4] is listed as “reduce pulmonary vascular resistance; also recorded: lowered pulmonary vascular resistances”. The “right atrial pressure (RAP) after administration” value in data set [5] (decrease from 17) stood at 7 mm Hg. The “mean pulmonary arterial pressure after administration” value in [5] (decrease from 33) came to 24 mm Hg. In addition, the “mean arterial pressure after administration” value in data set [5] (decrease from 92) turned out to be 77 mm Hg. For the same molecule, in data set [5] (increase from 72), the “heart rate after administration” value was 84 beats/minutes.
Regarding `CCCCC[C@H](O)/C=C/[C@@H]1[C@H]2C/C(=C/CCCC(=O)O)O[C@H]2C[C@H]1O` [prostacyclin], the “vasoactive drugs used post-operatively” value in data set [6] is given as “no vasoactive drugs used”. Moreover, the “difficult separation from bypass” value in data set [6] (cardiopulmonary bypass time of 138 min) is listed as “no difficult separation from bypass”. This molecule also gave a heart rate in data set [6] (decreased from 63) of 52 beats/min. In data set [6] (decreased from 76), the mean arterial pressure turned out to be 64 mmHg. For the same molecule, the cardiac index in data set [6] (increase from 1.9) was 2.4 L/min/m^2. Besides, the “Doppler hepatic venous flow systolic or S wave” value in data set [6] (negative value before, within 18 minutes) is “became positive and less pronounced”. Besides, the “mean pulmonary artery pressure” value in data set [6] (reduction from 36) was 29 mmHg. For the same molecule, the “pulmonary vascular resistance index” value in [6] (reduction from 589) is reported as 267 dynes.s/cm^5/m^2. For the same molecule, the half-life (in general, the time needed for the level to fall by half in the phase considered) in data set [7] was 2 to 3 min. Besides, the “vasoactive drugs in the post-operative period” value in data set [8] was “No vasoactive drugs were required”. Also, in [8] (decreased from 78), the “mean arterial pressure after bypass” value is reported as 67 mmHg. Besides, in [8] (increase from 2.3), the “cardiac index after bypass” value was 3.3 L/min/m^2. Moreover, in data set [8] (increased from 66), the “heart rate after bypass” value came to 85 beats/min. Moreover, the “pulmonary vascular resistance indexed after bypass” value in data set [8] (reduction from 242) came out at 121 dynes.s/cm^5/m^2. For the same molecule, the “hepatic venous flow signal” value in data set [8] (right ventricular diastolic waveform still abnormal) is given as “did not change significantly”. In addition, the “cardiac output increased by” value in [9] is 11%.
Consider `Nc1cc(-c2ccncc2)c[nH]c1=O` [amrinone], for which the “Result: hemodynamic effects, amrinone vs milrinone” value in the data set with cardiac surgery patients is on record as “produced similar”.
Regarding `[N]=O` [NO, nitric oxide], the “Result: right ventricular ejection fraction” value in the data set on cardiac surgery patients (n 45, pulmonary hypertension, Group 3 40 ppm NO compared to group 1 (milrinone) and 2 (20 ppm NO)) is reported as “Group 3 (40 ppm)higher right”.
With `CC(CCc1ccc(O)cc1)NCCc1ccc(O)c(O)c1` (stereo not drawn) [dobutamine], the “Result: overall comparison milrinone and dobutamine” value with cardiac surgery patients (setting [10]) is reported as “comparable”. Besides, the “Result: increases in cardiac index” value in the data set on cardiac surgery patients (n 120, low CO after cardiac surgery, dobutamine 10 to 20 μg/kg/min vs milrinone) was “group D had greater”.
